Values of other authors in publication PMC11865562 (Scientific Reports, 2025).

System: P-gp

In the case of `CNC(=O)c1ccc(-c2cnc3ncc(Cc4ccc5ncccc5c4)n3n2)cc1F` [Capmatinib, capmatinib], the “P-gp substrate (reported)” value is listed as “P-gp substrate”.
